How the values were obtained:
[1] = biological target: Tyrosine-protein kinase HCK (Homo sapiens) (UniProt P08631); experiment: Hck(h) activated Kinase panel; details: Compound concentration 1.0 uM, tested as the 2H-labelled form
[2] = biological target: Tyrosine-protein kinase Lck (Homo sapiens) (UniProt P06239); experiment: Lck(h) activated Kinase panel; details: Compound concentration 1.0 uM, tested as the 2H-labelled form
[3] = biological target: Serine/threonine-protein kinase 17A (Homo sapiens) (UniProt Q9UEE5); experiment: DRAK1(h) Kinase panel; details: Compound concentration 1.0 uM, tested as the 2H-labelled form
[4] = biological target: Serine/threonine-protein kinase ATR (Homo sapiens) (UniProt Q13535); experiment: ATR/ATRIP(h) Kinase panel; details: Compound concentration 1.0 uM, tested as the 2H-labelled form
[5] = biological target: D(2) dopamine receptor (Homo sapiens) (UniProt P14416); details: Compound concentration 10.0 uM, tested as the 2H-labelled form
[6] = biological target: Cyclin-dependent kinase 17 (Homo sapiens) (UniProt Q00537); experiment: CDK17/cyclinY(h) Kinase panel; details: Compound concentration 1.0 uM, tested as the 2H-labelled form
[7] = biological target: Serine/threonine-protein kinase/endoribonuclease IRE1 (Homo sapiens) (UniProt O75460); experiment: IRE1(h) Kinase panel; details: Compound concentration 1.0 uM, tested as the 2H-labelled form
[8] = biological target: Ribosomal protein S6 kinase alpha-3 (Homo sapiens) (UniProt P51812); experiment: Rsk2(h) Kinase panel; details: Compound concentration 1.0 uM, tested as the 2H-labelled form
[9] = biological target: Serine/threonine-protein kinase 32C (Homo sapiens) (UniProt Q86UX6); experiment: STK32C(h) Kinase panel; details: Compound concentration 1.0 uM, tested as the 2H-labelled form
[10] = biological target: Serine/threonine-protein kinase MRCK alpha (Homo sapiens) (UniProt Q5VT25); experiment: MRCKalpha(h) Kinase panel; details: Compound concentration 1.0 uM, tested as the 2H-labelled form
[11] = biological target: Ephrin type-B receptor 2 (Homo sapiens) (UniProt P29323); experiment: EphB2(h) Kinase panel; details: Compound concentration 1.0 uM, tested as the 2H-labelled form
[12] = biological target: Sigma non-opioid intracellular receptor 1 (Homo sapiens) (UniProt Q99720); details: Compound concentration 10.0 uM, tested as the 2H-labelled form
[13] = biological target: Serine/threonine-protein kinase VRK2 (Homo sapiens) (UniProt Q86Y07); experiment: VRK2(h) Kinase panel; details: Compound concentration 1.0 uM, tested as the 2H-labelled form
[14] = biological target: Ribosomal protein S6 kinase alpha-6 (Homo sapiens) (UniProt Q9UK32); experiment: Rsk4(h) Kinase panel; details: Compound concentration 1.0 uM, tested as the 2H-labelled form
[15] = biological target: BMP-2-inducible protein kinase (Homo sapiens) (UniProt Q9NSY1); experiment: BIKe(h) Kinase panel; details: Compound concentration 1.0 uM, tested as the 2H-labelled form
[16] = biological target: TGF-beta receptor type-1 (Homo sapiens) (UniProt P36897); experiment: TGFBR1(h) Kinase panel; details: Compound concentration 1.0 uM, tested as the 2H-labelled form
[17] = biological target: 5-hydroxytryptamine receptor 1B (Homo sapiens) (UniProt P28222); details: Compound concentration 10.0 uM, tested as the 2H-labelled form
[18] = biological target: Ephrin type-B receptor 4 (Homo sapiens) (UniProt P54760); experiment: EphB4(h) Kinase panel; details: Compound concentration 1.0 uM, tested as the 2H-labelled form
[19] = biological target: Tyrosine-protein kinase Lck (Homo sapiens) (UniProt P06239); experiment: Lck(h) Kinase panel; details: Compound concentration 1.0 uM, tested as the 2H-labelled form
[20] = biological target: Macrophage colony-stimulating factor 1 receptor (Homo sapiens, UniProt P07333); experiment: Fms(h) Kinase panel; details: Compound concentration 1.0 uM, tested as the 2H-labelled form
[21] = biological target: Serine/threonine-protein kinase MRCK gamma (Homo sapiens) (UniProt Q6DT37); experiment: MRCKgamma(h) Kinase panel; details: Compound concentration 1.0 uM, tested as the 2H-labelled form
[22] = biological target: Tyrosine-protein kinase ITK/TSK (Homo sapiens) (UniProt Q08881); experiment: Itk(h) Kinase panel; details: Compound concentration 1.0 uM, tested as the 2H-labelled form
[23] = biological target: D(1A) dopamine receptor (Homo sapiens) (UniProt P21728); details: Compound concentration 10.0 uM, tested as the 2H-labelled form
[24] = biological target: Serine/threonine-protein kinase PLK1 (Homo sapiens) (UniProt P53350); experiment: Plk1(h) Kinase panel; details: Compound concentration 1.0 uM, tested as the 2H-labelled form
[25] = biological target: Aurora kinase C (Homo sapiens) (UniProt Q9UQB9); experiment: Aurora-C(h) Kinase panel; details: Compound concentration 1.0 uM, tested as the 2H-labelled form
[26] = biological target: Cytoplasmic tyrosine-protein kinase BMX (Homo sapiens) (UniProt P51813); experiment: Bmx(h) Kinase panel; details: Compound concentration 1.0 uM, tested as the 2H-labelled form
[27] = biological target: SNF-related serine/threonine-protein kinase (Homo sapiens) (UniProt Q9NRH2); experiment: SNRK(h) Kinase panel; details: Compound concentration 1.0 uM, tested as the 2H-labelled form
[28] = biological target: Mitogen-activated protein kinase kinase kinase 9 (Homo sapiens) (UniProt P80192); experiment: MLK1(h) Kinase panel; details: Compound concentration 1.0 uM, tested as the 2H-labelled form
[29] = biological target: Serine/threonine-protein kinase tousled-like 2 (Homo sapiens) (UniProt Q86UE8); experiment: TLK2(h) Kinase panel; details: Compound concentration 1.0 uM, tested as the 2H-labelled form
[30] = biological target: Serine/threonine-protein kinase MRCK beta (Homo sapiens) (UniProt Q9Y5S2); experiment: MRCKbeta(h) Kinase panel; details: Compound concentration 1.0 uM, tested as the 2H-labelled form
[31] = biological target: Casein kinase I isoform epsilon (Homo sapiens, UniProt P49674); experiment: CK1epsilon(h) Kinase panel; details: Compound concentration 1.0 uM, tested as the 2H-labelled form
[32] = biological target: Phosphatidylinositol 4,5-bisphosphate 3-kinase catalytic subunit delta isoform (Homo sapiens) (UniProt O00329); experiment: PI3 Kinase (p110d/p85a)(h) Kinase panel; details: Compound concentration 1.0 uM, tested as the 2H-labelled form
[33] = biological target: Cyclin-dependent kinase 16 (Homo sapiens) (UniProt Q00536); experiment: CDK16/cyclinY(h) Kinase panel; details: Compound concentration 1.0 uM, tested as the 2H-labelled form
[34] = biological target: Mitogen-activated protein kinase kinase kinase 21 (Homo sapiens) (UniProt Q5TCX8); experiment: MLK4(h) Kinase panel; details: Compound concentration 1.0 uM, tested as the 2H-labelled form
[35] = biological target: Phosphatidylinositol 4-phosphate 5-kinase type-1 gamma (Homo sapiens) (UniProt O60331); experiment: PIP5K1g(h) Kinase panel; details: Compound concentration 1.0 uM, tested as the 2H-labelled form
[36] = biological target: Serine/threonine-protein kinase Nek1 (Homo sapiens) (UniProt Q96PY6); experiment: NEK1(h) Kinase panel; details: Compound concentration 1.0 uM, tested as the 2H-labelled form
[37] = biological target: Receptor-interacting serine/threonine-protein kinase 2 (Homo sapiens) (UniProt O43353); experiment: RIPK2(h) Kinase panel; details: Compound concentration 1.0 uM, tested as the 2H-labelled form
[38] = biological target: Glycogen synthase kinase-3 beta (Homo sapiens) (UniProt P49841); experiment: GSK3β(h) Kinase panel; details: Compound concentration 1.0 uM, tested as the 2H-labelled form
[39] = biological target: Casein kinase I isoform gamma-2 (Homo sapiens) (UniProt P78368); experiment: CK1gamma2(h) Kinase panel; details: Compound concentration 1.0 uM, tested as the 2H-labelled form
[40] = biological target: Proto-oncogene tyrosine-protein kinase Src (Homo sapiens) (UniProt P12931); experiment: cSRC(h) Kinase panel; details: Compound concentration 1.0 uM, tested as the 2H-labelled form
[41] = biological target: Serine/threonine-protein kinase 3 (Homo sapiens) (UniProt Q13188); experiment: MST2(h) Kinase panel; details: Compound concentration 1.0 uM, tested as the 2H-labelled form
[42] = biological target: Serine/threonine-protein kinase D1 (Homo sapiens) (UniProt Q15139); experiment: PKCmu (h) Kinase panel; details: Compound concentration 1.0 uM, tested as the 2H-labelled form
[43] = biological target: 5-hydroxytryptamine receptor 5A (Homo sapiens) (UniProt P47898); details: Compound concentration 10.0 uM, tested as the 2H-labelled form
[44] = biological target: Serine/threonine-protein kinase PAK 3 (Homo sapiens) (UniProt O75914); experiment: PAK3(h) Kinase panel; details: Compound concentration 1.0 uM, tested as the 2H-labelled form
[45] = biological target: Activin receptor type-1-like (Homo sapiens) (UniProt P37023); experiment: ALK1(h) Kinase panel; details: Compound concentration 1.0 uM, tested as the 2H-labelled form
[46] = biological target: Dual specificity tyrosine-phosphorylation-regulated kinase 1B (Homo sapiens) (UniProt Q9Y463); experiment: DYRK1B(h) Kinase panel; details: Compound concentration 1.0 uM, tested as the 2H-labelled form
[47] = biological target: Muscarinic acetylcholine receptor M1 (Homo sapiens) (UniProt P11229); details: Compound concentration 10.0 uM, tested as the 2H-labelled form
[48] = biological target: Wee1-like protein kinase (Homo sapiens) (UniProt P30291); experiment: Wee1(h) Kinase panel; details: Compound concentration 1.0 uM, tested as the 2H-labelled form
[49] = biological target: Cyclin-dependent kinase 4 (Homo sapiens) (UniProt P11802); experiment: CDK4/cyclinD3(h) Kinase panel; details: Compound concentration 1.0 uM, tested as the 2H-labelled form
[50] = biological target: 3-phosphoinositide-dependent protein kinase 1 (Homo sapiens) (UniProt O15530); experiment: PDK1(h) Kinase panel; details: Compound concentration 1.0 uM, tested as the 2H-labelled form
[51] = biological target: Ephrin type-A receptor 2 (Homo sapiens) (UniProt P29317); experiment: EphA2(h) Kinase panel; details: Compound concentration 1.0 uM, tested as the 2H-labelled form

Measured: inhibition

Sequence of Tyrosine-protein kinase Lck (Homo sapiens) (P06239 2-509 limits assumed): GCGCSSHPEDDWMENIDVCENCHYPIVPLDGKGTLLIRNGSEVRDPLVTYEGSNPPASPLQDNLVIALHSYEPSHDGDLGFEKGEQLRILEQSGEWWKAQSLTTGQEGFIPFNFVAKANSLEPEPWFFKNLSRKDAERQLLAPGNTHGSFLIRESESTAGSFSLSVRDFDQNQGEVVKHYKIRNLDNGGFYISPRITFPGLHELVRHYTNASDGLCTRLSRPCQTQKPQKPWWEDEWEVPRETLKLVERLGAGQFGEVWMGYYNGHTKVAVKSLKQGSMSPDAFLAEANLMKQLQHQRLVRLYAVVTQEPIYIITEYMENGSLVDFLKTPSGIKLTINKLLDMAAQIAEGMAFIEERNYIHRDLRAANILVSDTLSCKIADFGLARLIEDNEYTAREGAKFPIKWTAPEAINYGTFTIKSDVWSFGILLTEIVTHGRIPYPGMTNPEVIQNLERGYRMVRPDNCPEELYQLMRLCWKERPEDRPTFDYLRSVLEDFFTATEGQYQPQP
Sequence of Mitogen-activated protein kinase kinase kinase 9 (Homo sapiens) (P80192 whole entry, looked up): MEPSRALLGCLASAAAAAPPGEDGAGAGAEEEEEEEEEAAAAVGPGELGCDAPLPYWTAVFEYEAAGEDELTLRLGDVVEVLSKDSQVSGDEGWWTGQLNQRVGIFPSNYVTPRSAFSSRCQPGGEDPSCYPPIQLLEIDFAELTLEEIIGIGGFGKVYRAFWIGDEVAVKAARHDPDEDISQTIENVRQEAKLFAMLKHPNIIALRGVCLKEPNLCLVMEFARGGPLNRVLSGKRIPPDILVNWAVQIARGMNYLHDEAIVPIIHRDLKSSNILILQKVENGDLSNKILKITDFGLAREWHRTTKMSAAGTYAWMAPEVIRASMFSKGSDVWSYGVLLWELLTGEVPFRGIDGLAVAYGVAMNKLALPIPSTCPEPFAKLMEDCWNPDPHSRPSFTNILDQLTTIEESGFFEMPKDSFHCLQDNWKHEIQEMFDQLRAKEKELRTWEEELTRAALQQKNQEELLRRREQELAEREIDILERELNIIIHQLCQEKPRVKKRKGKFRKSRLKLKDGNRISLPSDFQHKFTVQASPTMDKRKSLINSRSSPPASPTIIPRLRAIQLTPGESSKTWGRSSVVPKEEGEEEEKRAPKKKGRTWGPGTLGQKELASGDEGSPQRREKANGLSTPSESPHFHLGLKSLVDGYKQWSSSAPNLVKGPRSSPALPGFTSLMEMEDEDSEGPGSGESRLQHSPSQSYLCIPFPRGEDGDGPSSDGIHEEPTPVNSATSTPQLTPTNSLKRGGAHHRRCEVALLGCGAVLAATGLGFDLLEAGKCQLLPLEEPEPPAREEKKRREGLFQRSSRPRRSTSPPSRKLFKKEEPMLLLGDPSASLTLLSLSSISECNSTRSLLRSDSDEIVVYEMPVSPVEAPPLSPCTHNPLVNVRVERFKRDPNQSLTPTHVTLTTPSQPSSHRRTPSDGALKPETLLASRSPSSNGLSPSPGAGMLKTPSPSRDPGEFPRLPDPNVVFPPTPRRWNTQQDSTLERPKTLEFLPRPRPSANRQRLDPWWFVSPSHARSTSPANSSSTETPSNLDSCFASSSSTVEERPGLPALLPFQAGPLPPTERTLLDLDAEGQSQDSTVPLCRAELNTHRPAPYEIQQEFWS
Sequence of Serine/threonine-protein kinase Nek1 (Homo sapiens) (Q96PY6 whole entry): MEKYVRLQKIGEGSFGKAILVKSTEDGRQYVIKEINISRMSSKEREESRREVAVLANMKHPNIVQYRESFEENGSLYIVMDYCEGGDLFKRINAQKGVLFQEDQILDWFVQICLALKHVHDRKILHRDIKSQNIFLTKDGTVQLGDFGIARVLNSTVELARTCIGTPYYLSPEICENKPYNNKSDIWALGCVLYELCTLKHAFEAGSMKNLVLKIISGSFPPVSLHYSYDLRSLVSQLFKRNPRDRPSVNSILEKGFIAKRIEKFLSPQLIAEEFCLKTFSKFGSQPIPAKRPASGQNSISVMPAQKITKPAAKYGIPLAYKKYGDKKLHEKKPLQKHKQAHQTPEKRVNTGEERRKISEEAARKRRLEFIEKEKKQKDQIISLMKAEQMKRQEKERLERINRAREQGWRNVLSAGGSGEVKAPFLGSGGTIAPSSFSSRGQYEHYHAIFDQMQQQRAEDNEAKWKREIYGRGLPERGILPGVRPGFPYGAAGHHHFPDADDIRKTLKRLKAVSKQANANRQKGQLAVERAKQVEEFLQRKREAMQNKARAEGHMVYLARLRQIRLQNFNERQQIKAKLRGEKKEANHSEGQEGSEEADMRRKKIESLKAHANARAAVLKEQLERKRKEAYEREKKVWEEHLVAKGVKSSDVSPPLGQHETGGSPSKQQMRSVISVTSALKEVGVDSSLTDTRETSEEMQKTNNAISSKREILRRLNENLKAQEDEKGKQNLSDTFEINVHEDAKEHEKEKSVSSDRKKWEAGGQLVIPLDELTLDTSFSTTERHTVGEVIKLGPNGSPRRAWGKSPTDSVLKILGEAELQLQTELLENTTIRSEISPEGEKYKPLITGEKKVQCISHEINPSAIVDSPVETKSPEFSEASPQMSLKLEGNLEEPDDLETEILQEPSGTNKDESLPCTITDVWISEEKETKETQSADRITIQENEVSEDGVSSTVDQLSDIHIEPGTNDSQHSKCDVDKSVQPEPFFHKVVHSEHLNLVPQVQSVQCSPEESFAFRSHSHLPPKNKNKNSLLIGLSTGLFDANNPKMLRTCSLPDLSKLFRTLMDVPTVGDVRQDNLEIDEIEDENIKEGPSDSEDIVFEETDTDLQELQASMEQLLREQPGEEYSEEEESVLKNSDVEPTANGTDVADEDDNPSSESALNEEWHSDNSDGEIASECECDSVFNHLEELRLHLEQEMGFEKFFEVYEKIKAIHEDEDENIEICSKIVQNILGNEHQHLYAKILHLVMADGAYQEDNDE
Sequence of Serine/threonine-protein kinase D1 (Homo sapiens) (Q15139 whole entry): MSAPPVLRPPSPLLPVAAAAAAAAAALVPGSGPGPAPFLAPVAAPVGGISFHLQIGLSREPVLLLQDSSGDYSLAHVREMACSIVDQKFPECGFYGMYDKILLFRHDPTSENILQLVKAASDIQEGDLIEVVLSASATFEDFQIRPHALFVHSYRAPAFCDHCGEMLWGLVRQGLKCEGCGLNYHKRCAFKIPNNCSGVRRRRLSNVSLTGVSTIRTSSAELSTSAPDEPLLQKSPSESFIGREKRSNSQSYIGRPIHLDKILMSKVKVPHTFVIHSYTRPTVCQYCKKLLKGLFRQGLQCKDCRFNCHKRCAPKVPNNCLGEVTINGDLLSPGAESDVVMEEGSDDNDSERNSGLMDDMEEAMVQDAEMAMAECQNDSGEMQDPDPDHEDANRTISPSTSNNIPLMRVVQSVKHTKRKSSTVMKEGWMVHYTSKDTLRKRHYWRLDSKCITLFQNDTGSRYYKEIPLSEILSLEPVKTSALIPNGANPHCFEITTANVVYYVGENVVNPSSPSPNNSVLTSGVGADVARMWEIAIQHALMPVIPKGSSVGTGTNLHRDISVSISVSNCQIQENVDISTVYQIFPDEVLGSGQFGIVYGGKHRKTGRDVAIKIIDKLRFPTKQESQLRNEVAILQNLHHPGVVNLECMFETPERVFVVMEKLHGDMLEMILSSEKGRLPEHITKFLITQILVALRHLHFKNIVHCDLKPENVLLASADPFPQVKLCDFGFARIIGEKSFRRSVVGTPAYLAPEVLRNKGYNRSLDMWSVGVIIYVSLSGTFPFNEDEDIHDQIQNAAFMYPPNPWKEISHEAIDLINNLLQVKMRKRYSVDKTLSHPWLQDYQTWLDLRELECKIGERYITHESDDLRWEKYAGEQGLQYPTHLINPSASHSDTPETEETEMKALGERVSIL
Sequence of Cyclin-dependent kinase 4 (Homo sapiens) (P11802 whole entry): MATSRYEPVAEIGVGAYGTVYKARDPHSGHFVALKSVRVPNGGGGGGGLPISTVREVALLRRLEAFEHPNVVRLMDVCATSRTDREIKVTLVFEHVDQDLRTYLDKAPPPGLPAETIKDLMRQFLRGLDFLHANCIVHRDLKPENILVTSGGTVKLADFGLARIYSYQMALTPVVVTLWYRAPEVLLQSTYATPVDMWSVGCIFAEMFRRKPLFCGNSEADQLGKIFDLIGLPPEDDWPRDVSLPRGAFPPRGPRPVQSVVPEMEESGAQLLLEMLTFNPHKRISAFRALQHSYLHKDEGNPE
Sequence of Cyclin-dependent kinase 17 (Homo sapiens) (Q00537 whole entry, looked up): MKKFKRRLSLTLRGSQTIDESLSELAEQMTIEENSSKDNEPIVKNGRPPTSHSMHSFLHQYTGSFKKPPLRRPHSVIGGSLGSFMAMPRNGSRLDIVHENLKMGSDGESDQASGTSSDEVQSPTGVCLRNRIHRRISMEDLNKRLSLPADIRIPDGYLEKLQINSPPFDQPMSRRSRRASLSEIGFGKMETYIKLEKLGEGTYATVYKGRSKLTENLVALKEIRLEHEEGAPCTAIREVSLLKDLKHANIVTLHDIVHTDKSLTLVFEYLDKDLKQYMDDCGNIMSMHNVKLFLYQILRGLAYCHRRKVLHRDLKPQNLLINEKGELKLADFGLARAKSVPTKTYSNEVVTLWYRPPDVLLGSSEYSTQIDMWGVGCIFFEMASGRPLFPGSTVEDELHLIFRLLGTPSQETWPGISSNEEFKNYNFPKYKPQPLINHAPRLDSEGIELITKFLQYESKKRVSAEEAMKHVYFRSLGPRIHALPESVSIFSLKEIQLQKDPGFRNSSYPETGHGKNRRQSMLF
Sequence of Serine/threonine-protein kinase 17A (Homo sapiens) (Q9UEE5 whole entry): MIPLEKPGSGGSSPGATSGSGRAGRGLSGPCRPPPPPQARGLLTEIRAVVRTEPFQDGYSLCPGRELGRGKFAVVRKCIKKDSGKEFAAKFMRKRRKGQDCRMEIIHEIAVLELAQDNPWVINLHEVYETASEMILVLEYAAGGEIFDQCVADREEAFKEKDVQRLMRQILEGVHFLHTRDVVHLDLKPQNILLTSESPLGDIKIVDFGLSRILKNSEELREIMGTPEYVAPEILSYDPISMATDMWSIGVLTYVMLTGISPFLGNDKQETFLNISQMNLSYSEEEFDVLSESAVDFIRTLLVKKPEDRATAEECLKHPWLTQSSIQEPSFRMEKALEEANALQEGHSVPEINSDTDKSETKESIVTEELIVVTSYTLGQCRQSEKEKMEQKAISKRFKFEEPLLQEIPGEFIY

CC1(C)Cn2nc(-c3ccc(F)cn3)c(-c3ccnc4[nH]ncc34)c2CO1
inactive: [1] 9% | [2] -10% | [3] 14% | [4] 16% | [5] 4.12% | [6] 6% | [7] 0% | [8] 20% | [9] 4% | [10] 6% | [11] 3% | [12] 15.1% | [13] 8% | [14] 23% | [15] -8% | [16] 43% | [17] 12.4% | [18] -2% | [19] 17% | [20] 0% | [21] 3% | [22] -8% | [23] -1.8% | [24] 15% | [25] 7% | [26] 19% | [27] 4% | [28] -3% | [29] 12% | [30] 2% | [31] 96% | [32] 2% | [33] 12% | [34] 20% | [35] -1% | [36] 5% | [37] 2% | [38] 4% | [39] -1% | [40] 15% | [41] 9% | [42] 13% | [43] 3.27% | [44] 9% | [45] 4% | [46] -10% | [47] -1.28% | [48] 10% | [49] 13% | [50] 9% | [51] 17%

From ChEMBL document CHEMBL5058645, “Data for DCP probe JNJ-6204” (2022)
